Laboratory results from paper PMC10107299, “Neutralizing the Impact of the Virulence Factor LecA from Pseudomonas aeruginosa on Human Cells with New Glycomimetic Inhibitors” (Angewandte Chemie (International Ed. in English), 2023).

Test system: P. aeruginosa PAO1
Test: Invasion assay of P. aeruginosa PAO1 into H1299 cells
Type: cell-based, Pseudomonas aeruginosa
Experimental: P. aeruginosa is able to invade non‐phagocytic cells via a lipid zipper mechanism.[10] Binding of LecA to the glycosphingolipid Gb3 followed by LecA‐induced receptor clustering plays a crucial role in this process. The LecA ligand 4‐nitrophenyl α‐ D‐galactopyranoside (PNPG) has been previously shown to interfere with these events at a high concentration of 10 mM leading to a reduction of bacterial invasiveness to 30–60 % as compared to untreated bacteria (100 % invasiveness).[10, 31] For invasion assays, H1299 cells were incubated with P. aeruginosa in presence and absence of LecA inhibitors, followed by killing of extracellular bacteria with the antibiotic amikacin. Then, all intracellular bacteria were released by lysis of the human cells and viable bacteria were quantified by plating. To assess the impact of LecA inhibitors on the invasiveness, the influence of the divalent LecA inhibitor L2 on bacterial invasion into host cells was evaluated and compared to PNPG. […] In contrast, the divalent LecA ligand L2 achieved an invasion decrease to 44 % already at 100 μM (Figure 5c). L2 was thus able to reach a similar reduction of invasion at a 100‐fold lower concentration than the one needed for PNPG. […]
lectin-inhibitor solution for 24 h at 37 °C. In order to depict exactly the same position for each wound, marker lines were drawn on the bottom of the 12-well plates for each well. The samples were imaged with an EVOS microscope (PEQLAB by VWR Life Sciences, Avantor […]
Excel. […]
A chromosomally GFP-tagged Gentamicin-resistant Pseudomonas aeruginosa PAO1 strain was cultured (LB medium supplemented with 60 µg/mL Gentamicin, 37 °C, 180 rpm, 16 h) and invasion assays were performed in analogy to Eierhoff et al..[13] 1.5 x 10^4 H1299 cells per well were seeded one day prior to the invasion assay in a 96-well plate with flat bottom. An […]
overnight culture of P. aeruginosa was centrifuged for 5 min at 3000 x g, washed with PBS (- /-) and re-suspended in RPMI 1640 medium. The newly synthesized divalent LecA ligand L2 was compared to 4-nitrophenyl α-D-galactopyranoside (PNPG; Sigma-Aldrich, Chemie GmbH, Darmstadt, Germany). […]
Subsequently, cells were washed three times with DPBS and lysed by incubation with 0.25% (v/v) Triton X-100 (Carl Roth GmbH & Co. KG, Karlsruhe, Germany) for 5 min at 37 °C and 180 rpm. […] Bacterial colonies were counted the next day. […] The invasion rate was calculated as the number of intracellularly localized bacteria divided by the total number of non-treated bacteria, bacteria that were not treated with any ligands and neither amikacin, thus the number of P. aeruginosa that successfully invaded or stayed attached to the host cells. Experiments were repeated independently at least four times (N ≥ 4) and evaluated […]

In the case of `O=C(CCc1ccc(O[C@@H]2O[C@H](CO)[C@H](O)[C@H](O)[C@H]2O)cc1)Nc1ccc(CCc2ccc(NC(=O)CCc3ccc(O[C@@H]4O[C@H](CO)[C@H](O)[C@H](O)[C@H]4O)cc3)cc2S(=O)(=O)O)c(S(=O)(=O)O)c1` [Compound L2], the “Lower concentration than PNPG for similar reduction of invasion” value (100 μM L2 vs 10 mM PNPG) was 100 fold and the “Bacterial invasiveness (untreated bacteria 100 %)” value (100 μM inhibitor, PAO1 into H1299 cells, N≥4) was 44%.
